# Assay results taken from US6706764B2, “Use of creatine or creatine analogs for the treatment of diseases of the nervous system” (Avicena Group, Inc., priority 1994, dated 2004).
# Columns and labels:
# [1] = test system: malonate striatal excitotoxic lesions; conditions: cited from earlier work; for protection against lesions in the malonate animal model: intrastriatal malonate; for ATP depletion produced by malonate in vivo: rat
# [2] = intravenous injection, up to 8 grams/day, patients with cardiac diseases; cited from earlier work
# MPTP toxicity = MPTP toxicity in mice, earlier work of the inventors; format: in vivo
# From the text: This metabolite is formed by the activity of monoamine oxidase on MPTP. Inhibitors of monoamine oxidase block the neurotoxicity of MPTP in both mice and primates. The specificity of the neurotoxic effects of MPP^+ for dopaminergic neurons appears to be due to the uptake of MPP^+ by the synaptic dopamine transporter. Blockers of this transporter prevent MPP^+ neurotoxicity. […] It binds to complex I at the retenone binding site. […] In vivo studies have shown that MPTP can deplete striatal ATP concentrations in mice.
# [3] = compared with phosphocreatine; cited from earlier work
# creatine kinase [4] = conditions: cited from earlier work
# [5] = test system: malonate induced striatal lesions; experiment: Malonate induced striatal lesions, model for Huntington's disease; format: in vivo, rats
# Procedure: We initially examined whether oral administration of creatine or its analogue cyclocreatine could attenuate malonate lesions. Creatine was administered orally to rats in their feed at doses of 0.25-3.0% of the diet. Cyclocreatine was administered at 0.2-1.0%. Controls received unsupplemented otherwise identical diets. The compounds were administered for two weeks prior to the administration of malonate and then for a further week prior to sacrifice. Malonate was dissolved in distilled deionized water and the pH wad adjusted to 7.4 with 0.1 m HCI. Intrastriatal injections of 1.5 ul of malonate containing 3 μmol were made into the striatum at the level of the Bregma 2.4 mm lateral to the midline and 4.5 mm ventral to the dura. Animals were sacrificed at 7 days by decapitation, and the brains were quickly removed and placed in ice cold 0.9% saline solution. Brains were sectioned at 2 mm intervals. Slices were then placed posterior side down in 2% 2,3,5-triphenyltetrazolium chloride. Slices were stained in the dark at room temperature for 30 minutes and then removed and placed in 4% paraformaldehyde, pH 7.3. Lesions, noted by pale staining, were evaluated on the posterior surface of each section using a Bioquant 4 system by an experienced histologist blinded to experimental conditions. These measurements have been validated by comparing them to measurements obtained on adjacent Nissl stain sections.
# [6] = cited from earlier work
# viral infections = conditions: 1% dietary; cited from earlier work
# creatine kinase [7] = conditions: forward reaction, both in vitro and in vivo; cited from earlier work
# [8] = test system: MPTP induced dopaminiergic toxicity; experiment: MPTP model for Parkinson's disease, striatal dopamine, DOPAC and HVA by HPLC; format: in vivo, male Swiss Webster mice; conditions: for neuroprotection against dopamine depletions: dose response
# Procedure: The effect of two representative creatine compounds, creatine and cyclocreatine, were evaluated using this model. Creatine and cyclocreatine were administered in the initial pilot experiment as 1% formulation in the feed of animals, and was administered for three weeks before MPTP treatment. MPTP was administered intraperitoneally at a dose of 15 mg/kg every 2 hours for five injections. The animals then remained on either creatine or cyclocreaine supplemented diets for 1 week before sacrifice. The mice examined were male Swiss Webster mice weighing 30-35 grams obtained from Taconic Farms. Control groups recieved either normal saline or MPTP hydrochloride alone. MPTP was administered in 0.1 ml of water. The MPTP was obtained from Research Biochemicals. Eight to twelve animals were examined in each group. Following sacrifice the two striata were rapidly dissected and placed in chilled 0.1 M perchloric acid. Tissue was subsequently sonicated, and aliquots were taken for protein quantification using a fluorometer assay. Dopamine, 3,4-dihydroxyphenylacetic acid (DOPAC), and homovanillic acid (HVA) were quantified by HPLC with 16 electrode electrochemical detection. Concentrations of dopamine and metabolites were expressed as nmol/mg protein. The statistical significance of differences was determined by one-way ANOVA followed by Fisher PLSDpost-hoc test to compare group means.
# A dose response study was conducted where the creatine dose was 0.25%-3.0% of the diet and cyclocreatine 0.25-1.0% of the diet.
# [9] = cited from earlier work; remark: listed apart in the source
# [10] = fed to mice, rats and chicks; cited from earlier work
# [11] = mice, up to 1% of diet for 2 weeks or for over 4 weeks; cited from earlier work
# [12] = pilot, 1% in feed, oral, FIG. 4
compound,measurement,setting,value
NC(=O)c1cccnc1 [nicotinimide],protection against lesions in the malonate animal model,[1],dose dependent protection
same,ATP depletion produced by malonate in vivo,[1],attenuated
N-phosphoryl creatine [creatine phosphate],adverse side effects,[2],no adverse side effects
"COC1=C(OC)C(=O)C(C/C=C(\C)CC/C=C(\C)CC/C=C(\C)CC/C=C(\C)CC/C=C(\C)CC/C=C(\C)CC/C=C(\C)CC/C=C(\C)CC/C=C(\C)CCC=C(C)C)=C(C)C1=O [Q10, coenzyme Q10]",protection against MPTP toxicity,MPTP toxicity,significantly protect
same,protection against lesions in the malonate animal model,[1],dose dependent protection
same,ATP depletion produced by malonate in vivo,[1],attenuated
O=C(O)CCC(=O)O [succinate],malonate lesions on co-injection,[1]; co-injection with malonate,blocks the lesions
3-phosphoryl-1-carboxymethyl-2-iminoimidazolidine [cyclocreatine phosphate],stability of the P-N bond,[3],more stable than that of phosphocreatine
N=C(N)N(CC(=O)O)CC1CO1 (stereo not shown) [epoxycreatine],inactivation of creatine kinase,creatine kinase [4],completely and irreversibly inactivate
"NC1=NCCN1CC(=O)O [cyclocreatine, 1-carboxymethyl-2-iminoimidazolidine]",neuroprotection against malonate induced striatal lesions,"[5]; dose of 1% in the diet, FIG. 2",significant
same,"neuroprotection against malonate induced striatal lesions, dose response","[5]; increasing doses in the diet: creatine 0.25-3%, cyclocreatine 0.2-1.0%, FIG. 2",dose dependent neuroprotective effects
same,protection against striatal malonate lesions (lesion volume),"[5]; initial pilot experiment, oral supplementation in feed, FIG. 1",protected against striatal malonate lesions
same,growth,[6]; in vivo,grew more slowly than control chicks
same,mortality,"[6]; newly hatched chicks, diet containing 1%, in the presence of antibiotics",without significant mortality
same,antiviral activity,viral infections,observed
same,phosphorylation by creatine kinase,creatine kinase [7],phosphorylated efficiently
same,protection against HVA depletion,"[8]; 0.5% of the diet, FIG. 5",not seen
same,effect on 3-4-dihydroxyphenyl acetic acid (DOPAC),"[8]; dose response study, FIG. 5",neuroprotection effects
same,effect on homovanillic acid (HVA),"[8]; dose response study, FIG. 5",neuroprotection effects
same,neuroprotection against dopamine depletions,"[8]; 0.5% of the diet, FIG. 5",significant protection
same,neuroprotection against dopamine depletions,"[8]; 1.0% of the diet, FIG. 5",significant protection
same,effect against MPTP induced depletions of homovanillic acid,[8]; [12],effective
same,neuroprotection against MPTP induced dopamine depletions,[8]; [12],significant neuroprotection
same,neuroprotective effect compared with creatine,[8]; [12],greater than that seen with creatine alone
same,protection against DOPAC depletions induced by MPTP,[8]; [12],significantly protected
same,accumulation in different organs,[9]; feeding animals e.g. 1% dietary,mM concentrations
same,tissue uptake,[9]; rats receiving dietary 1%,"taken up by muscle, heart and brain"
same,tolerability,[10],well-tolerated
same,gross adverse effects,[11],without gross adverse effects
Nc1nnc(-c2cccc(Cl)c2Cl)c(N)n1 [lamotrigine],protection against lesions in the malonate animal model,[1],attenuates the lesions
isoepoxycreatine,inactivation of creatine kinase,creatine kinase [4],completely and irreversibly inactivate
